Article PMC9669179 (Epilepsia, 2022)
Read-outs that look alike come from different tables or passages of the source.

Legend:
[1] = Brain pharmacokinetics in mice; conditions: mouse
[2] = Plasma pharmacokinetics in rats; conditions: rats
[3] = Brain pharmacokinetics in rats; conditions: rats, after CBZ i.p.
[4] = Plasma pharmacokinetics in mice
rats = conditions: rat, minimum motor impairment test, i.p.; cited from earlier work
in vivo [5] = conditions: CF-1, mouse, ip; for half-life: Plasma t1/2
[6] = Sprague Dawley, rat, in vivo
mice = conditions: mouse, cited from earlier work
[7] = CF-1, mouse, in vivo
[8] = Sprague Dawley, rat, in vivo; remark: listed apart in the source
[9] = CF-1, mouse, in vivo; remark: listed apart in the source
[10] = tested on: male adult Sprague-Dawley rats; assay: 6 Hz 80 V seizure test in rats; assay type: in vivo, rat; conditions: for Seizure protection (in words): rats, any time-point
in vivo [11] = conditions: Sprague Dawley, rat, ip
adult male CF-1 mice [12] = assay: 6 Hz 44 mA seizure test in mice; assay type: in vivo, mouse
in vivo [13] = conditions: Sprague Dawley, rat, ip, Brain t1/2
[14] = tested on: adult Sprague-Dawley rats; assay: Maximal electroshock; assay type: in vivo, rat; conditions: MES; for Efficacy in rats (number seizure protected /number tested): low dose i.p. (CLB 17, CBZ 3, VPA 165 mg/kg); for Seizure protection (in words): rats
[15] = tested on: adult Sprague-Dawley rats; conditions: rat, MES, i.p.; cited from earlier work
in vivo [16] = conditions: CF-1, mouse, ip
adult male CF-1 mice [17] = conditions: mouse, 6 Hz 44 mA, i.p.; cited from earlier work
[18] = metabolite after high parent dose i.p.: CLB 17, CBZ 40 mg/kg
[19] = metabolite after low parent dose i.p.: CLB 7, CBZ 7 mg/kg
[20] = mouse, metabolite after high parent dose i.p.: CLB 17, CBZ 40 mg/kg
[21] = mouse, metabolite after low parent dose i.p.: CLB 7, CBZ 7 mg/kg
[22] = high dose i.p. (CLB 17, VPA 570, LEV 500 mg/kg), time test 0.25 h
[23] = high dose i.p. (CLB 17, VPA 570, LEV 500 mg/kg), time test 0.5 h
[24] = high dose i.p. (CLB 17, VPA 570, LEV 500 mg/kg), time test 1 h
[25] = high dose i.p. (CLB 17, VPA 570, LEV 500 mg/kg), time test 2 h
[26] = high dose i.p. (CLB 17, VPA 570, LEV 500 mg/kg), time test 4 h
[27] = high dose i.p. (CLB 17, VPA 570, LEV 500 mg/kg), time test 8 h
[28] = low dose i.p. (CLB 7, VPA 260, LEV 20 mg/kg), time test 0.25 h
[29] = low dose i.p. (CLB 7, VPA 260, LEV 20 mg/kg), time test 0.5 h
[30] = low dose i.p. (CLB 7, VPA 260, LEV 20 mg/kg), time test 1 h
[31] = low dose i.p. (CLB 7, VPA 260, LEV 20 mg/kg), time test 2 h
[32] = low dose i.p. (CLB 7, VPA 260, LEV 20 mg/kg), time test 4 h
[33] = low dose i.p. (CLB 7, VPA 260, LEV 20 mg/kg), time test 8 h
[34] = mice, low dose i.p. (VPA 260, LEV 20 mg/kg)

NC(=O)N1c2ccccc2C2OC2c2ccccc21 (stereo not shown) [CBZE, carbamazepine-10,11-epoxide]
Brain/Plasma AUC ratio of active metabolite [1, 18]: 1.00
Brain/Plasma AUC ratio of active metabolite [1, 19]: 1.20
CBZE plasma exposures as % of CBZ ([2]; after CBZ i.p.): approximately 70%
Plasma half-life of metabolite ([2]; after CBZ i.p.): approximately 4 hrs
Brain half-life of metabolite [3]: approximately 4 hrs
Plasma half-life of CBZE relative to CBZ ([4]; mice, high dose CBZ 40 mg/kg i.p., fold longer than CBZ): ~ 3 fold
Plasma t1/2 of metabolite [4, 20]: 239 min
Plasma t1/2 of metabolite [4, 21]: 72 min

CC[C@@H](C(N)=O)N1CCCC1=O [LEV, levetiracetam]
TD50 - high dose (rats): 800 mg/kg
Tmax (in vivo [5]): 15 min
half-life (in vivo [5]): 103 min
Brain Dose Prop (AUC) [6]: 0.56
Brain t1/2 ([6]; ip): 212 min
TD50 - high dose (mice; rotarod test, i.p.): 500 mg/kg
Brain Dose Prop (AUC) [7]: 1.03
Plasma Dose Prop (AUC) [8]: 0.55
Plasma Dose Prop (Cmax) [8]: 0.500
Plasma t1/2 ([8]; ip): 191 min
Plasma Dose Prop (AUC) [9]: 1.27
Plasma Dose Prop (Cmax) [9]: 1.00
Plasma t1/2 ([9]; ip): 123 min
Efficacy in rats (number seizure protected /number tested) ([10]; high dose i.p. (LEV 800 mg/kg), time test 0.25 h): 0/4
Efficacy in rats (number seizure protected /number tested) ([10]; high dose i.p. (LEV 800 mg/kg), time test 0.5 h): 0/4
Efficacy in rats (number seizure protected /number tested) ([10]; high dose i.p. (LEV 800 mg/kg), time test 1 h): 0/4
Efficacy in rats (number seizure protected /number tested) ([10]; high dose i.p. (LEV 800 mg/kg), time test 2 h): 0/4
Efficacy in rats (number seizure protected /number tested) ([10]; high dose i.p. (LEV 800 mg/kg), time test 4 h): 0/4
Efficacy in rats (number seizure protected /number tested) ([10]; high dose i.p. (LEV 800 mg/kg), time test 8 h): 0/4
Efficacy in rats (number seizure protected /number tested) ([10]; low dose i.p. (LEV 14 mg/kg), time test 0.25 h): 0/4
Efficacy in rats (number seizure protected /number tested) ([10]; low dose i.p. (LEV 14 mg/kg), time test 0.5 h): 0/4
Efficacy in rats (number seizure protected /number tested) ([10]; low dose i.p. (LEV 14 mg/kg), time test 1 h): 0/4
Efficacy in rats (number seizure protected /number tested) ([10]; low dose i.p. (LEV 14 mg/kg), time test 2 h): 0/4
Efficacy in rats (number seizure protected /number tested) ([10]; low dose i.p. (LEV 14 mg/kg), time test 4 h): 0/4
Efficacy in rats (number seizure protected /number tested) ([10]; low dose i.p. (LEV 14 mg/kg), time test 8 h): 0/4
Seizure protection (in words) ([10]; high dose LEV 800 mg/kg i.p.): failed to protect
Seizure protection (in words) ([10]; low dose LEV 14 mg/kg i.p.): failed to protect
half-life (in vivo [11]; Plasma t1/2): 370 min
Efficacy in mice (number seizure protected/number tested) (adult male CF-1 mice [12]; [22]): 1/4
Efficacy in mice (number seizure protected/number tested) (adult male CF-1 mice [12]; [23]): 1/4
Efficacy in mice (number seizure protected/number tested) (adult male CF-1 mice [12]; [24]): 1/4
Efficacy in mice (number seizure protected/number tested) (adult male CF-1 mice [12]; [25]): 1/4
Efficacy in mice (number seizure protected/number tested) (adult male CF-1 mice [12]; [26]): 1/4
Efficacy in mice (number seizure protected/number tested) (adult male CF-1 mice [12]; [27]): 0/4
Efficacy in mice (number seizure protected/number tested) (adult male CF-1 mice [12]; [28]): 0/4
Efficacy in mice (number seizure protected/number tested) (adult male CF-1 mice [12]; [29]): 0/4
Efficacy in mice (number seizure protected/number tested) (adult male CF-1 mice [12]; [30]): 0/4
Efficacy in mice (number seizure protected/number tested) (adult male CF-1 mice [12]; [31]): 0/4
Efficacy in mice (number seizure protected/number tested) (adult male CF-1 mice [12]; [32]): 0/4
Efficacy in mice (number seizure protected/number tested) (adult male CF-1 mice [12]; [33]): 0/4
Protection against seizures (adult male CF-1 mice [12]; mice, high-dose LEV (500 mg/kg i.p.), within 4 hrs post-dose): 25%
Seizure protection (in words) (adult male CF-1 mice [12]; [34]): did not protect
half-life (in vivo [13]): 265 min

O=C1CC(=O)N(c2ccccc2)c2cc(Cl)ccc2N1 [NCLB, N-desmethyl clobazam]
Brain/Plasma AUC ratio of active metabolite [1, 18]: 1.64
Brain/Plasma AUC ratio of active metabolite [1, 19]: 1.88
NCLB concentrations relative to CLB ([2]; plasma and brain, after CLB i.p., fold less than CLB): ~ 20 fold
NCLB concentrations relative to CLB ([4]; mice, after CLB i.p., fold greater than CLB): approximately 10 fold
Plasma AUC of NCLB relative to CLB ([4]; mouse, after CLB i.p., fold greater than CLB): approximately 10 fold
Plasma t1/2 of metabolite [4, 20]: 266 min
Plasma t1/2 of metabolite [4, 21]: 385 min

CCCC(CCC)C(=O)O [VPA, sodium valproate]
Tmax (in vivo [5]): 30 min
Tmax (in vivo [5]; Plasma Tmax): 15 min
half-life (in vivo [5]): 43.8 min
Brain Dose Prop (AUC) [6]: 1.84
TD50 - high dose (mice; in vivo, ip): 570 mg/kg
Brain Dose Prop (AUC) [7]: 2.17
Brain t1/2 ([7]; ip): 76.8 min
Plasma Dose Prop (Cmax) [8]: 0.902
Time to total drug elimination (>97% drug eliminated) ([8]; ip): less than 4.5 hrs
Plasma Dose Prop (Cmax) [9]: 0.863
Tmax (in vivo [11]; Plasma Tmax): 15 min
Efficacy in rats (number seizure protected /number tested) ([14]; time test 0.25 h): 3/4
Efficacy in rats (number seizure protected /number tested) ([14]; time test 0.5 h): 3/4
Efficacy in rats (number seizure protected /number tested) ([14]; time test 1 h): 1/4
Efficacy in rats (number seizure protected /number tested) ([14]; time test 2 h): 0/4
Efficacy in rats (number seizure protected /number tested) ([14]; time test 4 h): 0/4
Efficacy in rats (number seizure protected /number tested) ([14]; time test 8 h): 0/4
Seizure protection (in words) ([14]; high dose i.p. (CLB 37, VPA 315 mg/kg)): full to moderate seizure protection
Seizure protection (in words) ([14]; low dose i.p. (CLB 17, VPA 165 mg/kg)): moderate protection
ED50 - low dose [15]: 165 mg/kg
Tmax (in vivo [16]): 30 min
Tmax (in vivo [16]; Brain Tmax): 15 min
half-life (in vivo [16]; Brain t1/2): 55.6 min
Efficacy in mice (number seizure protected/number tested) (adult male CF-1 mice [12]; [22]): 4/4
Efficacy in mice (number seizure protected/number tested) (adult male CF-1 mice [12]; [23]): 4/4
Efficacy in mice (number seizure protected/number tested) (adult male CF-1 mice [12]; [24]): 4/4
Efficacy in mice (number seizure protected/number tested) (adult male CF-1 mice [12]; [25]): 4/4
Efficacy in mice (number seizure protected/number tested) (adult male CF-1 mice [12]; [26]): 0/4
Efficacy in mice (number seizure protected/number tested) (adult male CF-1 mice [12]; [27]): 0/4
Efficacy in mice (number seizure protected/number tested) (adult male CF-1 mice [12]; [28]): 4/4
Efficacy in mice (number seizure protected/number tested) (adult male CF-1 mice [12]; [29]): 3/4
Efficacy in mice (number seizure protected/number tested) (adult male CF-1 mice [12]; [30]): 0/4
Efficacy in mice (number seizure protected/number tested) (adult male CF-1 mice [12]; [31]): 0/4
Efficacy in mice (number seizure protected/number tested) (adult male CF-1 mice [12]; [32]): 0/4
Efficacy in mice (number seizure protected/number tested) (adult male CF-1 mice [12]; [33]): 0/4
Brain concentration needed for complete seizure protection (adult male CF-1 mice [12]; mice, comparison of the two VPA dose levels): above 100 ng/mg
Seizure protection (in words) (adult male CF-1 mice [12]; mice, high dose i.p. (VPA 570 mg/kg), sustained only within 2 hrs): maximal antiseizure efficacy
Seizure protection (in words) (adult male CF-1 mice [12]; [34]): seizure protection was observed within the first hour
ED50 - low dose (adult male CF-1 mice [17]): 260 mg/kg
